Data taken from ChEMBL document CHEMBL1150400, “Lycoparins A-C, new alkaloids from Lycopodium casuarinoides inhibiting acetylcholinesterase” (Bioorg Med Chem, 2008).

target: T1, Acetylcholinesterase (Bos taurus, UniProt P23795); assay: Inhibition of acetylcholinesterase from bovine erythrocyte
T1 sequence (P23795 whole entry): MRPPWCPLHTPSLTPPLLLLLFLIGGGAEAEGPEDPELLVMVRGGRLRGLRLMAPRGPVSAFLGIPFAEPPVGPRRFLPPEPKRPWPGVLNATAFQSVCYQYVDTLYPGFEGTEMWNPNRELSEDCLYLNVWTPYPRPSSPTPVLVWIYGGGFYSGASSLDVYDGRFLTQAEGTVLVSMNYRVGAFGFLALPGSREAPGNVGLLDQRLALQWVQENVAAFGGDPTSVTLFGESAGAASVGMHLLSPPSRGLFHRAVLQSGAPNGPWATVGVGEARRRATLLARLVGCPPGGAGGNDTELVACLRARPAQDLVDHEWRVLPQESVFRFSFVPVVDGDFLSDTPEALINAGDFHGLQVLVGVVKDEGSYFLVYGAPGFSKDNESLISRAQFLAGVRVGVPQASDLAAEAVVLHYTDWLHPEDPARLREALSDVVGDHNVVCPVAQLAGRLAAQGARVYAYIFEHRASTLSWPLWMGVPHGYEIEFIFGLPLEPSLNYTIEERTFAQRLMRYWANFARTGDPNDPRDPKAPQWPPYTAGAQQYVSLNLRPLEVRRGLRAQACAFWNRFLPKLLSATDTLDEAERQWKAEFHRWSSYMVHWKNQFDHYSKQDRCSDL

`C=C[C@@H]1[C@H]2C=C(C(=O)O)C[C@]1(N(C)C)c1ccc(=O)[nH]c1C2` [LYCOPARIN A] was tested. Which IC50 did it give?
The IC50 was over 200 µM.

For `C=C[C@@H]1[C@H]2C=C(C(=O)O)C[C@]1(NC)c1ccc(=O)[nH]c1C2` [LYCOPARIN B], which IC50 is on record?
Its IC50 is over 200 µM.

With `C=C[C@@H]1[C@H]2C=C(CO)C[C@]1(N)c1ccc(=O)[nH]c1C2` [LYCOPARIN C] as the molecule, how does the IC50 read?
Its IC50 is 25 µM.
